Six compounds from ChEMBL document CHEMBL1142607, “Haterumadysins A-D, sesquiterpenes from the Okinawan marine sponge Dysidea chlorea” (2006) can be followed below.

What all share (assay type): functional
In assay [1] the test system is Echinoidea. Put plainly: Inhibition of cell division in fertilized sea urchin egg at 3 ppm.
The test system of assay [2] is Echinoidea. The experiment in a line: (§1) Inhibition of cell division in fertilized sea urchin egg at 1 ppm.
Assay [3] in a line: as §1. The settings on record: Echinoidea.

What is called inhibition is the drop in the measured response relative to a control, in per cent. Lower therefore signals a response near the control.

Calls of active or inactive are those of the source. No cut-off for these calls is given here.

Turning to `CC1=C[C@@H]2C[C@]3(C=COC3=O)C(C)(C)[C@@H]2CC1`, the result in the assay with Echinoidea [1] was inactive.

Regarding `CC(=O)O[C@@H]1OC=C[C@]12CC1=C[C@](C)(OO)CC[C@H]1C2(C)C`, the result with Echinoidea [2] was Active.

In the case of `CC(=O)O[C@@H]1OC=C[C@]12Cc1cc(C)ccc1C2(C)C`, the outcome with Echinoidea [2] was Active.

Turning to `CC(=O)O[C@@H]1OC=C[C@]12C=C1C=C(C)CC[C@H]1C2(C)C`, the result in the assay on Echinoidea [2] was Active.

As for `CC(=O)O[C@@H]1OC=C[C@]12C[C@H]1C=C(C)CC[C@H]1C2(C)C` [SPIRODYSIN], the inhibition at 1 ppm in assay [3] is 90%.

For `CC(=O)O[C@@H]1OC=C[C@]12CC1=C[C@@](C)(OO)CC[C@H]1C2(C)C`, the outcome in the assay on Echinoidea [2] was Active.
